Drawing on patent US6989384B2, “Antipicornaviral compounds and compositions, their pharmaceutical uses, and materials for their synthesis” (Agouron Pharmaceuticals, Inc., priority 2000, dated 2006), this text covers kinact/KI, EC50 and CC50 for 18 molecules.

Data set [1] addresses T1, rhinovirus 3C protease from HRV serotype-14 (Human rhinovirus 14, UniProt P03303).
T1 construct: Recombinant rhinovirus 3C proteases; made in house
Briefly: Inhibition of rhinovirus 3C protease activity (FRET assay), HRV-14. Conditions: read-out: Protease Inhibition kobs/I. Type of data set: biochemical. On the procedure:
(§1) Stock solutions (50 mM, in DMSO) of various compounds were prepared; dilutions were in the same solvent. Recombinant rhinovirus 3C proteases (see Birch et al., “Purification of recombinant human rhinovirus 14 3C protease expressed in Escherichia coli,” Protein Expr. Pur. 1995, 6(5), 609–618) from serotypes 14, 16, and 2 were prepared by the following standard chromatographic procedures: (1) ion exchange using Q Sepharose Fast Flow from Pharmacia; (2) affinity chromatography using Affi-Gel Blue from Biorad; and (3) sizing using Sephadex G-100 from Pharmacia. Each assay sample contained 2% DMSO, 50 mM tris pH 7.6, 1 mM EDTA, a test compound at the indicated concentration, approximately 1 μM substrate, and 50–100 nM protease. The kobs/I values were obtained from reactions initiated by addition of enzyme rather than substrate. RVP activity was measured in the fluorescence resonance energy transfer assay. The substrate was (N-terminal) DABCYL-(Gly-Arg-Ala-Val-Phe-Gln-Gly-Pro-Val-Gly)-EDANS. In the uncleaved peptide, the EDANS fluorescence was quenched by the proximal DABCYL group. When the peptide was cleaved, the quenching was relieved, and activity was measured as an increase in fluorescence signal. In the Table, unless otherwise indicated, all data are for rhinovirus 3C protease from HRV serotype-14 (produced from the infectious cDNA clone constructed by Dr. Robert Rueckert, Institute for Molecular Virology, University of Wisconsin, Madison, Wis.). The data in the column designated kobs/[I] were measured from progress curves in enzyme start experiments.

Data set [2] has as its target T2, rhinovirus 3C protease (HRV-2) (Human rhinovirus 2, UniProt P04936).
T2 construct: Recombinant rhinovirus 3C proteases; made in house
In words: Inhibition of rhinovirus 3C protease activity (FRET assay), HRV-2. Type of data set: biochemical. Conditions: read-out: Protease Inhibition kobs/I. On the procedure: as §1

In data set [3] the test system is HRV-14. Briefly: Antirhinoviral H1-HeLa cell culture assay (cell protection, XTT), HRV-14. Format: cell-based, human rhinovirus. Conditions: Rhinovirus B, read-out: Cell Protection EC50. The method, then: (§2) In this cell protection assay, the ability of compounds to protect cells against HRV infection was measured by the XTT dye reduction method, which is described in Weislow et al., J. Natl. Cancer Inst. 1989, vol. 81, 577–586.
(§3) H1-HeLa cells were infected with HRV-14 at a multiplicity of infection (m.o.i.) of 0.13 (virus particles/cell) or mock-infected with medium only. Infected or mock-infected cells were resuspended at 8×10^5 cells per mL, and incubated with appropriate concentrations of the compounds to be tested. Two days later, XTT/PMS was added to test plates and the amount of formazan produced was quantified spectrophotometrically at 450/650 nm. The EC50 value was calculated as the concentration of compound that increased the percentage of formazan production in compound-treated, virus-infected cells to 50% of that produced by compound-free, mock-infected cells. The 50% cytotoxic dose (CC50) was calculated as the concentration of compound that decreased the percentage of formazan produced in compound-treated, mock-infected cells to 50% of that produced by compound-free, mock-infected cells.
(§4) All strains of human rhinovirus (HRV) for use in this assay were purchased from American Type Culture Collection (ATCC), except for HRV serotype-14 (produced from the infectious cDNA clone constructed by Dr. Robert Rueckert, Institute for Molecular Virology, University of Wisconsin, Madison, Wis.). HRV stocks were propagated and viral assays were performed in H1-HeLa cells (ATCC). Cells were grown in minimal essential medium with 10% fetal bovine serum, available from Life Technologies (Gaithersburg, Md.).
(§5) The compounds were tested against control compounds WIN 51711, WIN 52084, and WIN 54954 (obtained from Sterling-Winthrop Pharmaceuticals), Pirodavir (obtained from Janssen Pharmaceuticals), and Pleconaril (prepared according to the method described in Diana et al., J. Med. Chem 1995, vol. 38, 1355). Antiviral data obtained for the test compounds are shown in the Table, where all data are for HRV serotype-14 unless otherwise noted in parentheses.
Background: Tetrazolium assays rely on reduction of a dye to a coloured formazan, in cell work by metabolically active cells.

Data set [4] has as its system HRV-2. Briefly: Antirhinoviral H1-HeLa cell culture assay (cell protection, XTT), HRV-2. Format: cell-based, human rhinovirus. Conditions: Rhinovirus A, HRV2, 48 h, HRV-2, H1-HeLa cells, two days. On the procedure: as §2, §3, §4, §5
Data set [5] in a line: Cytotoxicity in mock-infected H1-HeLa cells (XTT). Format: cell-based. Conditions: human, two days, read-out: Toxicity CC50. The method, then: as §2, §3, §4
Data set [6] deals with HRV-1A. In words: Antirhinoviral H1-HeLa cell culture assay (cell protection, XTT), HRV-1A. Format: cell-based, human rhinovirus. Conditions: Rhinovirus A, HRV1A, 48 h, H1-HeLa cells, two days. On the procedure:
as §2, §3, §4, §5

Data set [7] relates to HRV-10. Briefly: Antirhinoviral H1-HeLa cell culture assay (cell protection, XTT), HRV-10. Conditions: Human rhinovirus sp., HRV10, 48 h, HRV-10, H1-HeLa cells, two days. Type of data set: cell-based. On the procedure: as §2, §3, §4, §5
Where [8] appears, read: HRV-14 3C protease, progress curves, enzyme start.
Where [9] appears, read: HRV14, 48 h, HRV-14, H1-HeLa cells, XTT, two days.

pEC50: −log10 of the molar value. Where two headings read alike, the source gives them in different places. Where only a bound is given, the exact number is not on record here.

T1 sequence (P03303 1538-1719): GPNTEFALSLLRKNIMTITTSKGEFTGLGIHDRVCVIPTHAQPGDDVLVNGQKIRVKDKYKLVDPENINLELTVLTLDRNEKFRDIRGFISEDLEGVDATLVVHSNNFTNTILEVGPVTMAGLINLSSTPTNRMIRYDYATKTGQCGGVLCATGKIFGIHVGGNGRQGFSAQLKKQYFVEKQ
T2 sequence (P04936 1508-1690): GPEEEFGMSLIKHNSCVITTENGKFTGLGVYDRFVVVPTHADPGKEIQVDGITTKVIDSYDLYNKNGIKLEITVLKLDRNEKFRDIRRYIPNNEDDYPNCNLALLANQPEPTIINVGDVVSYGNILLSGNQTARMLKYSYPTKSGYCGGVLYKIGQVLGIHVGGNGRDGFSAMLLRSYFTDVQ

Turning to `CCOC(=O)/C=C/[C@H](C[C@@H]1CCNC1=O)NC(=O)c1ccc2ccc(O)cc2c1` [Compound 54, 4S-[(7-Hydroxy-naphthalene-2-carbonyl)-amino]-5-(2-oxo-pyrrolidin-3S-yl)-pent-2-enoic acid ethyl ester], the kinact/KI in data set [1] (setting [8]) was found to be 220 M⁻¹ s⁻¹; in data set [2] (HRV-2 3C protease, progress curves, enzyme start), 35 M⁻¹ s⁻¹.
By pEC50 is commonly meant the negative decadic logarithm of the EC50, by convention in mol/L. The term CC50 denotes the concentration that lowers cell viability or growth by half. As to `CCOC(=O)/C=C/[C@H](C[C@@H]1CCNC1=O)NC(=O)c1ccc2ccccc2c1` [Compound 1, 4S-[(naphthalene-2-carbonyl)-amino]-5-(2-oxo-pyrrolidin-3S-yl)-pent-2-enoic acid ethyl ester], the kinact/KI in data set [1] is 1090 M⁻¹ s⁻¹; in data set [2], 110 M⁻¹ s⁻¹. Further, the negative logarithm of the EC50 (pEC50) in data set [3] (HRV14, H1-HeLa, 48 h) is 6.82; in data set [4], 5.87. The CC50 at 2 days in data set [5] is > 100 µM.
`CCOC(=O)/C=C/[C@H](C[C@@H]1CCNC1=O)NC(=O)C1=Cc2cc(Br)ccc2OC1` [Compound 52, 4S-[(6-Bromo-2H-chromene-3-carbonyl)-amino]-5-(2-oxo-pyrrolidin-3S-yl)-pent-2-enoic acid ethyl ester]: the kinact/KI in data set [1] is 25000 M⁻¹ s⁻¹; in data set [2] it was 372 M⁻¹ s⁻¹. Besides, the pEC50 was 6.76 in data set [3] (HRV14, H1-HeLa, 48 h); 5.30 in data set [6]; 6.26 in data set [7]. In addition, the CC50 at 2 days in data set [5] is 65 µM.
With `CCOC(=O)/C=C/[C@H](C[C@@H]1CCNC1=O)NC(=O)/C=C/c1cc2c(cc1Br)OCO2` [Compound 49, 4S-[3-(6-Bromo-benzo[1,3]dioxol-5-yl)-acryloylamino]-5-(2-oxo-pyrrolidin-3S-yl)-pent-2-enoic acid ethyl ester], the kinact/KI in data set [1] stood at 14400 M⁻¹ s⁻¹. The pEC50 in data set [3] (HRV14, H1-HeLa, 48 h) was 6.31; in data set [6], 5.60; in data set [7], 6.50. Besides, in data set [5], the CC50 at 2 days is > 100 µM.
Turning to `CCOC(=O)/C=C/[C@H](CCC(N)=O)NC(=O)c1cc2ccccc2s1` [Compound 26, 4S-[(benzo[b]thiophene-2-carbonyl)-amino]-6-carbamoyl-hex-2-enoic acid ethyl ester], the kinact/KI in data set [1] (setting [8]) was 95 M⁻¹ s⁻¹. For the same molecule, the pEC50 was 5.82 in data set [3] (setting [9]), 4.23 in data set [6] and 4.91 in data set [7]. Besides, the CC50 at 2 days in data set [5] is > 100 µM.
For `CCOC(=O)/C=C/[C@H](CCC(N)=O)NC(=O)c1ccc(Cl)c(Cl)c1` [Compound 35, 6-carbamoyl-4S-(3,4-dichloro-benzoylamino)-hex-2-enoic acid ethyl ester], the kinact/KI in data set [1] (setting [8]) was 35 M⁻¹ s⁻¹. In addition, the pEC50 in data set [3] (setting [9]) was < 4.00. Also, the CC50 at 2 days in data set [5] was determined as 100 µM.
On to `CCOC(=O)/C=C/[C@H](C[C@@H]1CCNC1=O)NC(=O)c1cc(-c2ccccc2)oc1C` [Compound 45, 4S-[(2-Methyl-5-phenyl-furan-3-carbonyl)-amino]-5-(2-oxo-pyrrolidin-3S-yl)-pent-2-enoic acid ethyl ester], for which, in data set [1], the kinact/KI stood at 4740 M⁻¹ s⁻¹. Further, the pEC50 in data set [3] (HRV14, H1-HeLa, 48 h) is 5.71. For the same molecule, the CC50 at 2 days in data set [5] was > 100 µM.
For `CCOC(=O)/C=C/[C@H](CCC(N)=O)NC(=O)c1ccc2ccccc2n1` [Compound 31, 6-carbamoyl-4S-[(quinoline-2-carbonyl)-amino]-hex-2-enoic acid ethyl ester], in data set [1] (setting [8]), the kinact/KI came out at 110 M⁻¹ s⁻¹. Moreover, the pEC50 in data set [3] (setting [9]) was 5.15. Besides, in data set [5], the CC50 at 2 days was > 100 µM.
On to `CCOC(=O)/C=C/[C@H](C[C@@H]1CCNC1=O)NC(=O)c1cc2cc(OC)c(OC)cc2n1C` [Compound 19, 4S-[(5,6-dimethoxy-1-methyl-indole-2-carbonyl)-amino]-5-(2-oxo-pyrrolidin-3S-yl)-pent-2-enoic acid ethyl ester], for which the kinact/KI in data set [1] was found to be 1230 M⁻¹ s⁻¹. Further, the pEC50 in data set [3] (HRV14, H1-HeLa, 48 h) is 5.87. For the same molecule, the CC50 at 2 days in data set [5] was > 10 µM.
Consider `CCOC(=O)/C=C/[C@H](C[C@@H]1CCNC1=O)NC(=O)C1=Cc2ccccc2OC1` [Compound 67, 4S-[(2H-chromene-3-carbonyl)-amino]-5-(2-oxopyrrolidin-3S-yl)-pent-2-enoic acid ethyl ester], for which, in data set [1], the kinact/KI worked out at 886 M⁻¹ s⁻¹. Further, the pEC50 in data set [3] (HRV14, H1-HeLa, 48 h) was 5.92. In addition, the CC50 at 2 days in data set [5] was > 100 µM.
The corresponding values for `CCOC(=O)/C=C/[C@H](C[C@@H]1CCNC1=O)NC(=O)c1ccc2cc(C)ccc2c1` [Compound 51, 4S-[(6-Methyl-naphthalene-2-carbonyl)-amino]-5-(2-oxo-pyrrolidin-3S-yl)-pent-2-enoic acid ethyl ester] are 5020 M⁻¹ s⁻¹, 6.06 and > 100 µM.
For `CCOC(=O)/C=C/[C@H](C[C@@H]1CCNC1=O)NC(=O)c1ccc2ccc(Br)cc2c1` [Compound 53, 4S-[(7-Bromo-naphthalene-2-carbonyl)-amino]-5-(2-oxo-pyrrolidin-3S-yl)-pent-2-enoic acid ethyl ester], the kinact/KI in data set [1] was 31400 M⁻¹ s⁻¹; in data set [2] it was 385 M⁻¹ s⁻¹. The pEC50 in data set [3] (HRV14, H1-HeLa, 48 h) was 6.74; in data set [6] it was 5.38; in data set [7] it was 6.26; in data set [4], 6.37. In data set [5], the CC50 at 2 days came to 56.2 µM.
For the molecule `CCOC(=O)/C=C/[C@H](CCC(N)=O)NC(=O)c1ccccc1COC(=O)c1ccccc1` [Compound 36], in data set [1] (setting [8]), the kinact/KI came out at 10 M⁻¹ s⁻¹. Moreover, the pEC50 in data set [3] (setting [9]) is < 4.00. In data set [5], the CC50 at 2 days was > 100 µM.
Consider `CCOC(=O)/C=C/[C@H](C[C@@H]1CCNC1=O)NC(=O)c1cc2cc(Br)ccc2[nH]1` [Compound 20], for which the kinact/KI in data set [1] was determined as 1370 M⁻¹ s⁻¹. The pEC50 in data set [3] (HRV14, H1-HeLa, 48 h) is 5.36. Besides, in data set [5], the CC50 at 2 days is > 10 µM.
In the case of `CCOC(=O)/C=C/[C@H](CCC(N)=O)NC(=O)c1ccc2ccccc2c1` [Compound 25, 6-carbamoyl-4S-[(naphthalene-2-carbonyl)-amino]-hex-2-enoic acid ethyl ester], the kinact/KI in data set [1] (setting [8]) stood at 150 M⁻¹ s⁻¹. Moreover, the figures for the pEC50 in data set [3] (setting [9]), in data set [6] and in data set [7] were 6.22, 4.66 and 4.46, respectively. Moreover, in data set [5], the CC50 at 2 days was > 100 µM.
In the case of `CCOC(=O)/C=C/[C@H](CCC(N)=O)NC(=O)c1cnc2ccccc2n1` [Compound 28, 6-carbamoyl-4S-[(quinoxaline-2-carboxyl)-amino]-hex-2-enoic acid ethyl ester], the kinact/KI in data set [1] (setting [8]) came to 64 M⁻¹ s⁻¹. The pEC50 in data set [3] (setting [9]) was 4.85. Moreover, the CC50 at 2 days in data set [5] was > 100 µM.
On to `CCOC(=O)/C=C/[C@H](C[C@@H]1CCNC1=O)NC(=O)/C=C/c1ccc(F)c(Br)c1` [Compound 48, 4S-[3-(3-Bromo-4-fluoro-phenyl)-acryloylamino]-5-(2-oxo-pyrrolidin-3S-yl)-pent-2-enoic acid ethyl ester], for which, in data set [1], the kinact/KI is 2860 M⁻¹ s⁻¹. Besides, the negative logarithm of the EC50 (pEC50) in data set [3] (HRV14, H1-HeLa, 48 h) is 6.20. Moreover, the 50% cytotoxic concentration (CC50) at 2 days in data set [5] was > 100 µM.
With `CCOC(=O)/C=C/[C@H](C[C@@H]1CCNC1=O)NC(=O)Nc1cc(OC)cc(OC)c1` [Compound 57, 4S-[3-(3,5-dimethoxy-phenyl)ureido]-5-(2-oxo-pyrrolidin-3S-yl)-pent-2-enoic acid ethyl ester], the kinact/KI in data set [1] worked out at 388 M⁻¹ s⁻¹. For the same molecule, the pEC50 in data set [3] (HRV14, H1-HeLa, 48 h) was < 5.00. Besides, the CC50 at 2 days in data set [5] was > 10 µM.
